Data published in US5872107A, “Treatment of urogenital cancer with boron neutron capture therapy” (Emory University, priority 1997, dated 1999).
“Also recorded” adds a separate entry of the source.

Assay: Urinary excretion of unchanged CDU and CDU glucuronide
Format: in vivo, Sprague-Dawley rats
Method: On the morning of the experiment, rats were placed in individual metabolism cages. CDU […]) was administered intravenously in 0.1 ml of DMSO to the rats over a one minute period. Blood samples (0.35 ml) were collected prior to and at […], 2, 3, 4, 5, 6, 7 and 8 hour after CDU administration from the cannula into heparinized polypropylene microcentrifuge tubes. Blood volume was replaced with an equal volume of normal saline. Blood samples were immediately centrifuged at 2000 g for 5 minutes and plasma was separated and frozen at -20° C. until analysis. Urine was collected for 24 hour following CDU administration. Urine volume was measured and samples were frozen at -20° C. until analysis.
For the determination of unchanged CDU in urine, urine samples were diluted 1:50 with distilled deionized water and 100 μl of internal standard (50 μg/ml progesterone) was added and injected onto the HPLC. Concentrations of CDU glucuronide in urine were determined after hydrolyzing the glucuronate with β-glucuronidase as previously described. Glucuronide concentrations were calculated as the difference between CDU concentrations measured after hydrolysis and before hydrolysis with β-glucuronidase.

Substance: 5-carboranyl-2'-deoxyuridine [CDU]
- unchanged CDU in urine (in words) (24 hours following 25 mg/kg i.v.): No unchanged CDU was detected in urine; also recorded: No unchanged CDU was recovered in urine
- renal excretion (in words) (rat): not renally excreted to any significant extent
- renal tubular reabsorption (in words) (rat, inferred from absence of unchanged CDU in urine): virtually complete renal tubular reabsorption
- CDU glucuronide in urine (in words) (urine treated with β-glucuronidase, 25 mg/kg i.v., 25 mg/kg): no trace of CDU glucuronide in urine; also recorded: no glucuronide metabolites were detected in urine samples
